Laboratory results as given in PubChem BioAssay AID1996.
Converted amounts (≈) assume the structure as drawn.

Conditions: buffer; pH 7.4; 200.0 µM

| SMILES | solubility kinetic [µg/mL] |
| --- | --- |
| O=C1NC(=O)C(=Cc2ccc(-c3ccccc3[N+](=O)[O-])o2)C(=O)N1 | 44.2 (≈ 135 µM) |
| Cc1ccc(CN2CCN(Cc3ccc(OC(C)C)cc3)CC2CCO)o1 (centres undefined) | 41.2 (≈ 111 µM) |
| COc1ccc(NC(=O)COC(=O)C2CCC2)cc1Cl | 42.8 (≈ 144 µM) |
| CCCc1cc(C(=O)Nc2ccc(CC)cc2)no1 | 1.4 (≈ 5.42 µM) |
| O=C(COC(=O)C1CC2CCCC(C1)C2=O)Nc1cccc(F)c1 (centres undefined) | > 50 |
| Cc1ccc(NC(=O)C2CCC(N3C(=O)C4CCCCC4C3=O)CC2)cc1 (centres undefined) | 52.2 (≈ 142 µM) |
| CC(Nc1ccccc1)c1ccncc1 (centres undefined) | > 29.7 |
| c1ccc2c(c1)CSc1ccccc1N2 | 6.8 (≈ 31.9 µM) |
| O=[N+]([O-])c1ccc(CP(=O)(c2ccccc2)c2ccccc2)cc1 | 8 (≈ 23.7 µM) |
| O=C(Nc1ccc2c(c1)CCC2)Nc1ccccc1F | 1.6 (≈ 5.92 µM) |
| CCN(CC)S(=O)(=O)c1nnc(NC(=O)c2ccco2)s1 | > 49.6 |
| O=c1c2ccccc2nc(Cc2cccc([N+](=O)[O-])c2)n1-c1ccc(O)cc1 | 47.8 (≈ 128 µM) |
| O=C(Nc1ccc2c(c1)Cc1ccccc1-2)c1ccccc1F | < 0.6 |
| CN(CC(=O)NCc1ccccc1)Cc1ccc(Cl)cc1 | 43.3 (≈ 143 µM) |
| CCOC(=O)C(=O)c1c(-c2ccc(C)cc2)nc2ccccn12 | > 46.3 |
| CC1=C(C(=O)OCCOC(C)C)C(c2cccc3ccccc23)NC(=O)N1 (centres undefined) | 4.6 (≈ 12.5 µM) |
| C[C@@H]1CC2(CCCC[N+]2(C)C)C[C@H]1C.[I-] | > 48.5 |
| Cc1cc(/C(N)=N/OC(=O)c2ccccc2Cl)no1 | > 42 |
| Cc1ccc(OCc2cc(C(=O)NC3CCOC3)no2)cc1C (centres undefined) | 33.1 (≈ 105 µM) |
| CCOC(=O)c1c(-c2cccs2)csc1N | 26.8 (≈ 106 µM) |

| SMILES | solubility kinetic [µg/mL] |
| --- | --- |
| N/C(=N\OC(=O)c1ccc(F)cc1)c1ccc(Br)cc1 | 0.4 (≈ 1.19 µM) |
| Cc1ccc(Nc2c([N+](=O)[O-])ccc3nonc23)cc1C | 0.4 (≈ 1.41 µM) |
| N#C/C(=C\c1ccc(O)c([N+](=O)[O-])c1)C(=O)NCc1ccccc1 | 46.2 (≈ 143 µM) |
| O=C(Nc1cccnc1Cl)c1cc2ccccc2o1 | 7.3 (≈ 26.8 µM) |
| COc1ccccc1NS(=O)(=O)c1cc(NC(=O)c2ccccc2[N+](=O)[O-])ccc1N1CCOCC1 | 4.4 (≈ 8.58 µM) |
| COC(=O)c1ccc2c(=O)n(-c3ccccc3F)c(=S)[nH]c2c1 | 1 (≈ 3.03 µM) |
| COc1ccc(C(=O)NCCN2CCOCC2)cc1[N+](=O)[O-] | > 46.4 |
| Cc1ccc(NC(=O)CN(C)C(=O)CSc2ccccc2F)cc1 | 5.2 (≈ 15 µM) |
| CNC(=S)NNC(=O)Cc1ccc(OC)cc1 | > 38 |
| Cc1cccc(NC(=O)Nc2ccc([N+](=O)[O-])cc2)n1 | < 0.1 |
| Cn1c(/C(C#N)=C(\O)c2ccc([N+](=O)[O-])cc2)nc2ccccc21 | < 0.2 |
| Cc1ccc(CNCc2ccco2)cc1.O=C(O)C(=O)O | > 43.7 |
| COc1ccc(N2CCCC2)c(NC(=O)COc2ccccc2Cl)c1 | 1 (≈ 2.77 µM) |
| COc1ccc(C(=O)NC2=NCCS2)c(OC)c1 | > 39.9 |
| CN(Cc1ccc(N(C)C)cc1)C(=O)c1cc2ccccc2o1 | 31.5 (≈ 102 µM) |
| Cc1ccc(NC(=O)CN(C)C(=O)COC(=O)c2ccc(NC(=O)CC#N)cc2)cc1 | 36 (≈ 85.2 µM) |
| Cc1ccccc1Nc1c(-c2ccccn2)nc2c(C)cccn12 | 1 (≈ 3.18 µM) |
| CCNC(=S)N1CCN(Cc2ccc3c(c2)OCO3)CC1 | > 46.1 |
| CCc1ccccc1N1CC(C(=O)Nc2cc(C)on2)CC1=O (centres undefined) | > 47 |
| Cn1c(N)c(C(=O)COC(=O)/C=C/c2ccc(Cl)cc2Cl)c(=O)n(C)c1=O | 2.9 (≈ 7.03 µM) |

| SMILES | solubility kinetic [µg/mL] |
| --- | --- |
| COCCNC(=O)/C(C#N)=C/c1ccc(O)cc1 | > 36.9 |
| CC(=O)c1c(C)[nH]c(C(=O)CN(C)CC(=O)Nc2ccccc2Cl)c1C | > 56.4 |
| N/C(=N\OC(=O)Cc1ccc([N+](=O)[O-])cc1)c1ccccn1 | 26.6 (≈ 88.6 µM) |
| Cc1nc(/N=C(\N)NC(=O)NC2CCCCC2)nc2ccccc12 | 12.7 (≈ 38.9 µM) |
| O=C(O)c1ccc(N2CCc3ccccc32)c([N+](=O)[O-])c1 | > 42.6 |
| O=C(COC(=O)C1CCCC1)Nc1ncc(Cl)cc1Cl | > 47.6 |
| Cc1ccc(C(=O)NCC(c2ccco2)N2CCOCC2)cc1 (centres undefined) | > 47.2 |
| CCc1ccc(NC(=O)NCCN2CCCCC2)cc1 | > 41.3 |
| COc1ccccc1NC(=O)NCCc1ccccc1 | > 40.5 |
| O=C(NCc1ccccc1)NC(=O)c1ccc(Cl)cc1 | < 0.3 |
| FC(F)(F)c1cccc(NC(=S)N2CCCCCC2)c1 | 22.3 (≈ 73.8 µM) |
| O=C1CSC(c2ccccn2)N1c1ccc(F)cc1F (centres undefined) | > 43.8 |
| CCOc1ccc(C(=O)NCC(c2ccco2)N2CCOCC2)cc1 (centres undefined) | > 51.7 |
| CCOc1c(Nc2ccc(C(C)C)cc2)c(=O)c1=O | 25.3 (≈ 97.6 µM) |
| Cc1ccc(OCC(=O)NCCCNC(=O)COc2ccc(C)cc2)cc1 | 15.1 (≈ 40.8 µM) |
| O=C(Cc1ccccc1)NCC(=O)N1CCCC1 | > 36.9 |
| O=C(O)c1cc(S(=O)(=O)N2CCCCC2)ccc1Cl | > 45.6 |
| Cc1ccc(C)c(NC(=O)CSc2nccn2Cc2ccco2)c1 | > 51.2 |
| Cc1ccc(C(=O)Nc2sc3c(c2C(=O)O)CCCC3)o1 | > 45.8 |
